The results in this text go back to US9394290B2, “Selective CYP11B1 inhibitors for the treatment of cortisol dependent diseases” (UNIVERSITAET DES SAARLANDES CAMPUS SAARBRUECKEN, priority 2010, dated 2016).

The target in experiment [1] is human CYP11B2 (Homo sapiens (Human), UniProt P19099). Put plainly: Cellular assay for CYP11B2 inhibition (V79MZh11B2 hamster fibroblasts, substrate 11-deoxycorticosterone). The settings on record: for IC50: read-out: IC50 value CYP11B2, Hamster fibroblasts expressing human CYP11B2, 100 nM, mean of at least three experiments, n.i. = no inhibition at an inhibitor concentration of 500 nM.
Sequence of human CYP11B2 (P19099 25-503): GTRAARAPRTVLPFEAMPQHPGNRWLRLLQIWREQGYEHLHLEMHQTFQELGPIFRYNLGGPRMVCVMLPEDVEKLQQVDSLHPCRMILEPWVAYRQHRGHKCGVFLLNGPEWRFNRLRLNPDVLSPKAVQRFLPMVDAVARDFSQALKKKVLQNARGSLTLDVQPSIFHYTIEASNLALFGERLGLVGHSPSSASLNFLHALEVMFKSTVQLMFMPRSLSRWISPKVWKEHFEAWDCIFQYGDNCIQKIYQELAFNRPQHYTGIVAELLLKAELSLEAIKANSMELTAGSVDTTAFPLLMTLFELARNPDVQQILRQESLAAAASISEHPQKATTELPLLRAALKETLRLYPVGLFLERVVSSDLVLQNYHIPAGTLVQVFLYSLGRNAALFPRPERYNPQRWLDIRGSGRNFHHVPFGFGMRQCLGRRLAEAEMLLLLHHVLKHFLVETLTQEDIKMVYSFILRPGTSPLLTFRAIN

For experiment [2], the target named is human CYP11B1 (Homo sapiens (Human), UniProt P15538). Put plainly: Cellular assay for CYP11B1 inhibition (V79MZh11B1 hamster fibroblasts, substrate 11-deoxycorticosterone). The note with it: for sf: selectivity factor: IC50 (CYP11B2)/IC50 (CYP11B1): ratio IC50 (CYP11B2)/IC50 (CYP11B1); for IC50: read-out: IC50 value CYP11B1, Hamster fibroblasts expressing human CYP11B1, substrate 11-deoxycorticosterone, 100 nM, mean of at least three experiments.
Sequence of human CYP11B1 (P15538 25-503): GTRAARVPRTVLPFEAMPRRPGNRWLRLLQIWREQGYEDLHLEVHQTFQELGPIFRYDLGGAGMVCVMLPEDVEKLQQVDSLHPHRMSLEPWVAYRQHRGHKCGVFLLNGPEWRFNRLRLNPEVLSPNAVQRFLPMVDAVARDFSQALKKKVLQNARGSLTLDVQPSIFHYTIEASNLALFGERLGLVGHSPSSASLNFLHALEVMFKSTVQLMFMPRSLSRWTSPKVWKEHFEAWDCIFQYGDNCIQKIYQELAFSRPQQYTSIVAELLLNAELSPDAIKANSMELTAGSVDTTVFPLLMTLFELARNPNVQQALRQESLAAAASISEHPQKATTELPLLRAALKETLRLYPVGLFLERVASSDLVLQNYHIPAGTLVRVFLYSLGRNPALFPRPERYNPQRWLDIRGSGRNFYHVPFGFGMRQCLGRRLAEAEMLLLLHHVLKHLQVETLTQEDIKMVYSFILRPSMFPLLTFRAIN

The target in experiment [3] is human CYP17 (Homo sapiens (Human), UniProt P05093). Put plainly: CYP17 inhibition assay (membrane fraction of E. coli expressing human CYP17, substrate progesterone). The settings on record: 25 μM, inhibitor concentration 2.0 μM, read-out: inhibition (%) CYP 17. The format is biochemical. The method, then:
Recombinant E. coli pJL17/OR coexpressing human CYP17 and rat NADPH-P450-reductase were grown and stored as described by Ehmer et al. (J. Steroid Biochem. Mol. Biol., 2000, 75, 57-63)
For isolation of membrane fractions, 5 ml of bacterial suspension with an OD578 of 50 were washed using phosphate buffer (0.05 M, pH 7.4, 1 mM MgCl2, 0.1 mM EDTA and 0.1 mM dithiothreitol). Bacteria were harvested by centrifugation (2000×g) and the pellet was resuspended in 10 ml ice-cold TES buffer (0.1 M tris-acetate, pH 7.8, 0.5 mM EDTA, 0.5 M sucrose). Lysozyme was added with 10 ml of ice-cold water resulting in a concentration of 0.2 mg/ml followed by incubation for 30 min on ice with continuous shaking. Spheroplasts were harvested by centrifugation (12000×g, 10 min), and resuspended in 4 ml of ice-cold phosphate buffer (the same as described above plus 0.5 mM phenylmethylsulfonylfluoride (PMSF)).
After that spheroplasts were sonicated on ice (pulse 20 s on, 30 s off, five times), using a sonicator Sonopuls HD60 (Bandelin, Berlin, Germany) at maximum power. Unbroken cells and debris were pelleted at 3000×g for 7 min, and the supernatant was centrifuged at 50000×g for 20 min at 4° C. The membrane pellet was resuspended in 2 ml of phosphate buffer (the same as described above) with 20% glycerol using an ultra-turrax T25 (IKA-Labortechnik, Staufen, Germany). Protein concentration was determined by the method of Lowry.
The assay was performed as follows: a solution of 6.25 nmol progesterone (in 5 μl methanol) in 140 μl phosphate buffer (0.05 M, pH 7.4, 1 mM MgCl2, 0.1 mM EDTA and 0.1 mM dithiothreitol), 50 μl NADPH generating system (in phosphate buffer with 10 mM NADP, 100 mM glucose-6-phosphate and 2.5 units of glucose-6-phosphate-dehydrogenase) and inhibitor (in 5 μl DMSO) was pre-incubated at 37° C. for 5 min. Control cups were supplemented with 5 μl DMSO without inhibitor. The reaction was started by adding 50 μl of a 1:5 diluted membrane suspension in phosphate buffer (0.8-1.0 mg protein per ml). The maximum DMSO concentration in each sample was 2%. After mixing, incubation was performed for 30 min at 37° C. Subsequently the reaction was stopped with 50 μl 1 N HCl.
Extraction of the steroids was performed by addition of 1.0 ml ethyl acetate and vigorous shaking for 1 min. After a centrifugation step (5 min, 2500×g) the organic phase (0.9 ml) was transferred into a fresh cup containing 0.25 ml of incubation buffer and 50 μl 1 N HCl and mixed again. After centrifugation, 0.8 ml ethyl acetate solution was evaporated to dryness in a fresh cup. After that the steroids were redissolved in solvent for HPLC analysis (Hutschenreuter et. al. J. Enz. Inhib. Med. Chem. 2004, 19, 17-32).
The above experiment was conducted at least three times and a mean value for the CYP17 inhibition calculated.

Each structure is given as a SMILES string.

Sequence of human CYP17 (P05093 whole entry): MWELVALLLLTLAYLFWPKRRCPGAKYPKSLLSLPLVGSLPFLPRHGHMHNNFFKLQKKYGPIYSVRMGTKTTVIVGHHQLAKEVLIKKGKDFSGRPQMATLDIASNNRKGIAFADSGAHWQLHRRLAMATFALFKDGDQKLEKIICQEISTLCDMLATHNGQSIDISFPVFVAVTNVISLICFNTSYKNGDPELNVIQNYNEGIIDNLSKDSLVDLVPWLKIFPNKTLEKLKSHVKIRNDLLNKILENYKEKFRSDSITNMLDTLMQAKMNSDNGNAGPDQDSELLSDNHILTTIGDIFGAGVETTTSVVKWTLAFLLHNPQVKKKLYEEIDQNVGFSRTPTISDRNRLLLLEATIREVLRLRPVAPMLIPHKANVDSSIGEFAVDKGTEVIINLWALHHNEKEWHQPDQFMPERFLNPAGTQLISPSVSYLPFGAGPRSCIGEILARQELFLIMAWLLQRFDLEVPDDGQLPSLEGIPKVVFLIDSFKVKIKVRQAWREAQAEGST

Consider `c1ccc(-c2ccc(Cn3ccnc3)cn2)cc1` [Compound 1, 5-Imidazol-1-ylmethyl-2-phenyl-pyridine], for which, in experiment [1], the IC50 turned out to be 2770 nM. In addition, in experiment [2], the “sf: selectivity factor: IC50 (CYP11B2)/IC50 (CYP11B1)” value (from here on “sf: selectivity factor: IC50”) came to 18 and the IC50 turned out to be 152 nM.
As for `Brc1ccc(Cn2ccnc2)cn1` [Compound 1a, 5-Imidazol-1-ylmethyl-2-bromopyridine], the IC50 was more than 1000 nM in experiment [1] and 500 nM in experiment [2].
On the same counts, the results for `c1cc(Cn2ccnc2)ccn1` [Compound 2, 4-Imidazol-1-ylmethyl-pyridine] are more than 1000 nM and 663 nM.
In the case of `c1cncc(Cn2ccnc2)c1` [Compound 3, 3-Imidazol-1-ylmethyl-pyridine], the IC50 is more than 1000 nM in experiment [1] and 816 nM in experiment [2].
Take `N#Cc1ncccc1Cn1ccnc1` [Compound 4, 3-Imidazol-1-ylmethyl-pyridine-2-carbonitrile]: the IC50 in experiment [1] is more than 1000 nM; in experiment [2], 971 nM.
With `Clc1ncc(Cn2ccnc2)cc1Br` [Compound 6, 3-Bromo-2-chloro-5-imidazol-1-ylmethyl-pyridine], in experiment [1], the IC50 worked out at 576 nM. For the same compound, in experiment [2], the “sf: selectivity factor: IC50” value worked out at 3.4 and the IC50 amounted to 168 nM.
As usually defined, the inhibition is the relative decrease from the control value, in per cent. Consider `Fc1cccc(-c2ccc(Cn3ccnc3)cn2)c1` [Compound 8, 2-(3-Fluoro-phenyl)-5-imidazol-1-ylmethyl-pyridine], for which the IC50 in experiment [1] is more than 1000 nM; in experiment [2], 320 nM. Further, in experiment [3], the inhibition at 2 µM was found to be 1%.
As for `Fc1ccc(-c2ccc(Cn3ccnc3)cn2)cc1` [Compound 9, 2-(4-Fluoro-phenyl)-5-imidazol-1-ylmethyl-pyridine], in experiment [1], the IC50 is 2150 nM. Besides, the inhibition at 2 µM in experiment [3] worked out at 5%. For the same compound, in experiment [2], the “sf: selectivity factor: IC50” value is on record as 10 and the IC50 is 213 nM.
As to `Fc1ccc(-c2ccc(Cn3ccnc3)cn2)cc1F` [Compound 10, 2-(3,4-Difluoro-phenyl)-5-imidazol-1-ylmethyl-pyridine], the figures for the IC50 in experiment [1] and in experiment [2] were 1660 nM and 329 nM, respectively. For the same compound, in experiment [3], the inhibition at 2 µM turned out to be 0%. Besides, in experiment [2], the “sf: selectivity factor: IC50” value was 5.
For the compound `COc1ccc(-c2ccc(Cn3ccnc3)cn2)cc1` [Compound 13, 5-Imidazol-1-ylmethyl-2-(4-methoxy-phenyl)pyridine], the IC50 was more than 1000 nM in experiment [1] and 782 nM in experiment [2]. The inhibition at 2 µM in experiment [3] came to 0%.
On the same counts, the results for `COc1ccc(-c2ccc(Cn3ccnc3)cn2)cc1OC` [Compound 14, 2-(3,4-Dimethoxy-phenyl)-5-imidazol-1-ylmethyl-pyridine] are more than 1000 nM, more than 1000 nM and 2%.
Turning to `N#Cc1cccc(-c2ccc(Cn3ccnc3)cn2)c1` [Compound 19, 3-(5-Imidazol-1-ylmethyl-pyridin-2-yl)-benzonitrile], the figures for the IC50 in experiment [1] and in experiment [2] were more than 1000 nM and 409 nM, respectively.
On to `N#Cc1ccc(-c2ccc(Cn3ccnc3)cn2)cc1` [Compound 20, 4-(5-Imidazol-1-ylmethyl-pyridin-2-yl)-benzonitrile], for which the IC50 in experiment [1] was more than 1000 nM; in experiment [2] it was 782 nM.
On to `O=Cc1ccc(-c2ccc(Cn3ccnc3)cn2)cc1` [Compound 21, 4-(5-Imidazol-1-ylmethyl-pyridin-2-yl)-benzaldehyde], for which the results for the IC50 in experiment [1] and in experiment [2] were more than 1000 nM and 246 nM, respectively. Also, the inhibition at 2 µM in experiment [3] is 0%.
For the compound `c1ccc2cc(-c3ccc(Cn4ccnc4)cn3)ccc2c1` [Compound 24, 5-Imidazol-1-ylmethyl-2-naphthalen-2-yl-pyridine], the IC50 in experiment [1] was 782 nM. Moreover, in experiment [2], the “sf: selectivity factor: IC50” value stood at 3.2 and the IC50 was 246 nM.
In the same order, the values of `c1cncc(-c2ccc(Cn3ccnc3)cn2)c1` [Compound 26, 5-Imidazol-1-ylmethyl-[2,3′]bipyridinyl] are 3960 nM, 8 and 502 nM.
Consider `c1cc(-c2ccc(Cn3ccnc3)cn2)ccn1` [Compound 27, 5-Imidazol-1-ylmethyl-[2,4′]bipyridinyl], for which the IC50 in experiment [1] is 487 nM. Also, in experiment [2], the “sf: selectivity factor: IC50” value was 3.5 and the IC50 came out at 139 nM.
In the case of `c1cn(Cc2ccc(-c3cncnc3)nc2)cn1` [Compound 28, 5-(5-Imidazol-1-ylmethyl-pyridin-2-yl)-pyrimidine], the “IC50 value CYP11B2” value in experiment [1] (Hamster fibroblasts expressing human CYP11B2, 100 nM, mean of at least three experiments, n.i. = no inhibition at an inhibitor concentration of 500 nM) is “n.i.^d”. In experiment [2], the IC50 was 971 nM.
Regarding `COc1ccc(-c2ccc(Cn3ccnc3)cn2)cn1` [Compound 29, 5-Imidazol-1-ylmethyl-6′-methoxy-[2,3′]bipyridinyl], the IC50 in experiment [1] and in experiment [2] was more than 1000 nM each time.
`c1ccc2c(-c3ccc(Cn4ccnc4)cn3)cncc2c1` [Compound 30, 4-(5-Imidazol-1-ylmethyl-pyridin-2-yl)-isoquinoline]: the IC50 in experiment [1] came to 914 nM. Also, in experiment [2], the “sf: selectivity factor: IC50” value worked out at 10 and the IC50 was 95 nM.
Consider `Clc1ccc(-c2ccc(Cn3ccnc3)cn2)s1` [Compound 33, 2-(5-Chloro-thiophen-2-yl)-5-imidazol-1-ylmethyl-pyridine], for which, in experiment [1], the IC50 is 929 nM. For the same compound, in experiment [2], the “sf: selectivity factor: IC50” value was 2.6 and the IC50 worked out at 362 nM.
`c1ccc2sc(-c3ccc(Cn4ccnc4)cn3)cc2c1` [Compound 37, 2-Benzo[b]thiophen-2-yl-5-imidazol-1-ylmethyl-pyridine]: the IC50 in experiment [1] is 281 nM. In addition, in experiment [2], the “sf: selectivity factor: IC50” value amounted to 1.0 and the IC50 came to 269 nM.
On to `c1ccc2oc(-c3ccc(Cn4ccnc4)cn3)cc2c1` [Compound 41, 2-Benzo[b]furan-2-yl-5-imidazol-1-ylmethyl-pyridine], for which the IC50 was more than 1000 nM in experiment [1] and 500 nM in experiment [2].
Regarding `CCOC(=O)c1cncn1[C@H](C)c1ccccc1` [ETO, etomidate, reference compound], the IC50 in experiment [1] worked out at 0.1 nM.
